Test results taken from patent US20060014722A1, “Per (3,6-anhydro) cyclodextrin derivatives, their preparation and use thereof for separating ions, in particular chromium and manganese anions” (priority 2002, published 2006).

How the values were obtained:
Solubility in water = assay type: physicochemical
[1] = Ion-exchange plate chromatography, complexing of cations; assay type: binding; settings: 18 cations tested on ion-exchange plates
Description: (§1) The use of thin layer chromatography plates charged with ions allows rapid evaluation of the complexing of these ions by the species to be evaluated; in the present case, plates of the Polygram Ionex 25-SA-Na type (Macherey-Nagel, ref.: 80613) charged with various counterions to be evaluated.
(§2) In each test, there is introduced onto the plate the compound of Example 1 which will be retained on the plate if it complexes the ions. […] The lower the Rf, for a given ion, the more the ion in question will form a complex with the cyclodextrin compound.
Likewise, tests were carried out to see whether the derivatives according to the invention were capable of complexing cations. Tests were carried out with the following ions:
Na^+, K^+, Cs^+,NH4^+,Ca^2+,Ba^2+, Al^3+, Fe^3+, Co^2+, Ni^2+, Cu^2+, Ag^2+, Zn^2+, Hg^2+, Pb^2+, La^3+, Gd^3+, UO2^2+.

[2] = Ion-exchange plate chromatography (retardation factor Rf), complexing of manganese anions; assay type: binding; settings: Polygram Ionex 25-SA-Na plates charged with the ion, developed four times in water
Description: as §1
(§3) Thus, chromatography plates are used onto which are respectively bound the ions acetyl COO^− (designated Ac in FIG. 1), PO4^3−, NO3^−, Cr2O7^2−, Cl^−, SO4^2^−, HCO3^−, BO3^−, WO4^2−, MnO4^−, CrO4^2−, AsO4^2−, AlO2^−.
as §2

[3] = Ion-exchange plate chromatography (retardation factor Rf), complexing of chromium anions; assay type: binding; settings: Polygram Ionex 25-SA-Na plates charged with the ion, developed four times in water
Description: as §1, §3, §2

per(3,6-anhydro)cyclomaltohexaose per-2-O-ethylcarbamate [Example 1]
solubility in water (Solubility in water): low solubility in water | complexing of cations (Rf, FIG. 2) [1]: none of these cations efficiently forms a complex | complexing rate for manganese ions (Rf, FIG. 1) [2]: high complexing rate | complexing rate for chromium ions (Rf, FIG. 1) [3]: high complexing rate
